Test results: patent US12439945B2, “Method of improving flavor of a composition of (D)-β-hydroxybutyric acid and (D)-1,3 butanediol and use as a nutritional supplement and therapeutic agent” (VitaNav, Inc., priority 2020, dated 2025)

Assay: Circulating ketone level and ketotic efficiency after administration of D-BHB, D-BHV and D-1,3BD in various ratios to subjects at rest
Format: in vivo, human
Settings: based on measured plasma levels of FIG. 1
Source text: Examples include using a composition including D-BHB, D-BHV, and D-1,3BD in a subject at rest. The ketotic efficiency represents the net elevation of circulating ketones a ketone supplement affects over time in an individual. Ketotic efficiency may be represented as: Σt=0^n(mMol/L)/(g/kg)*t where mMol/L is the concentration of circulating β-hydroxybutyrate in the blood, g is the total dose of the combined D-BHB, D-BHV, and D-1,3,BD in grams, kg is the mass of the individual in kilograms, and t is an increment of time in minutes.
While this example pertains to a fasted subject at rest, the relative utility of blended vs pure constituents has also been observed in fed and active subjects.
As illustrated by the examples of FIG. 1, these exemplary compositions can advantageously elevate circulating ketones by approximately two times greater than other known compositions. Such a composition can sustain ketonemia for longer than either D-BHB or D-1,3BD can when ingested alone by a subject of a given weight as shown by the 100% line (i.e., contains D-BHB, but not D-1,3BD) and the 0% line (i.e., contains only D-1,3BD, but not D-BHB).
As shown in the following table, the increase in circulating ketone level with a 10 g dose in three human subjects at rest was maximal at between 45-55% D-BHB in the tested compositions. […]

SMILES	prolonged rise of blood ketone levels
CC(O)CCO [D-1,3BD, (D)-1,3 butanediol]	does not cause a prolonged rise of blood ketone levels
CC(O)CC(=O)O [D-BHB, (D)-β-hydroxybutyric acid]	A similar result was obtained
